Data published in BindingDB's records for patent US20250162989 (Vincere Biosciences, 2025).
pIC50: −log10 of the molar value.

Target: T1, Ubiquitin carboxyl-terminal hydrolase 30 (Homo sapiens, UniProt Q70CQ3)
T1 sequence (Q70CQ3 whole entry): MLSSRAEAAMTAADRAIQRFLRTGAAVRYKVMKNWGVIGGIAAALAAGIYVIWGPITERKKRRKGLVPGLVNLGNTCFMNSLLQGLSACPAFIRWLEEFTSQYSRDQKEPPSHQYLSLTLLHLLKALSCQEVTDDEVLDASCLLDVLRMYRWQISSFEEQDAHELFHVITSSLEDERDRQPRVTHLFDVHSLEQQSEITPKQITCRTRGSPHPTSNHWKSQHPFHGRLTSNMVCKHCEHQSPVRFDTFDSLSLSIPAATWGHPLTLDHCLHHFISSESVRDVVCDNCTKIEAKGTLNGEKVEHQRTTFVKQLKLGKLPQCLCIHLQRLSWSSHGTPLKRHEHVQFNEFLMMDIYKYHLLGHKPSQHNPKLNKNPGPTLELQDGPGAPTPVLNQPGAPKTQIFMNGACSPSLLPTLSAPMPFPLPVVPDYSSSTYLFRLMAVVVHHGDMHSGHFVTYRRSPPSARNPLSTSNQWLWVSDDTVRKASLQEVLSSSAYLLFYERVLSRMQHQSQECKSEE
Test: In Vitro USP30 Biochemical Assay

pIC50: < 5.00
SMILES: CC(C)(C)NS(=O)(=O)c1ccc(NC(=O)[C@H]2CCCN2C(=O)c2ccc(F)cc2)cc1 [US20250162989, Compound I-51]
